Organism: Rattus norvegicus
Assay: Open TG-GATES - Regimen: Daily Repeat
Assay type: toxicity, organism-based, Sprague-Dawley
Design: regimen Daily Repeat, gender Male, age 6 weeks
Settings: in vivo, po, 30 mg/kg, route gavage, dose level Low; for APTT / Bas / Eos / Fbg / Hb / Ht / Lym / MCH / MCHC / MCV / Mono / Neu / PT / Plat / RBC / Ret / WBC: tissue Blood; for KIDNEY_L / KIDNEY_R / KIDNEY_TOTAL: tissue Kidney; for LIVER: tissue Liver; for A/G / ALP / ALT / AST / BUN / CRE / Ca / Cl / DBIL / GLC / IP / K / LDH / Na / PL / RALB / TBIL / TC / TG / TP / gamma-GTP: tissue Plasma

CCc1oc2ccccc2c1C(=O)c1cc(I)c(O)c(I)c1 [BENZIODARONE]
TERMINAL_BW (72 h, time 3 day): 242 g
APTT (72 h, time 3 day): 17.5 s
Bas (72 h, time 3 day): 0%
Eos (72 h, time 3 day): 1%
Fbg (72 h, time 3 day): 216.8 mg/dL
Hb (72 h, time 3 day): 13.8 g/dL
Ht (72 h, time 3 day): 40.8%
Lym (72 h, time 3 day): 79.4%
MCH (72 h, time 3 day): 21.9 pg
MCHC (72 h, time 3 day): 33.8%
MCV (72 h, time 3 day): 64.7 fL
Mono (72 h, time 3 day): 6.4%
Neu (72 h, time 3 day): 13.2%
PT (72 h, time 3 day): 11.7 s
Plat (72 h, time 3 day): 115.3 x10_4/uL
RBC (72 h, time 3 day): 629.4 x10_4/ul
Ret (72 h, time 3 day): 6.5%
WBC (72 h, time 3 day): 104.5 x10_2/uL
KIDNEY_L (72 h, time 3 day): 1.1 g
KIDNEY_R (72 h, time 3 day): 1.1 g
KIDNEY_TOTAL (72 h, time 3 day): 2.2 g
LIVER (72 h, time 3 day): 12.7 g
A/G (72 h, time 3 day): 1.8
ALP (72 h, time 3 day): 1087.2 IU/L
ALT (72 h, time 3 day): 42.6 IU/L
AST (72 h, time 3 day): 67.4 IU/L
BUN (72 h, time 3 day): 16.8 mg/dL
CRE (72 h, time 3 day): 0.5 mg/dL
Ca (72 h, time 3 day): 10.7 mg/dL
Cl (72 h, time 3 day): 104 meq/L
DBIL (72 h, time 3 day): 0.016 mg/dL
GLC (72 h, time 3 day): 191.2 mg/dL
IP (72 h, time 3 day): 7.8 mg/dL
K (72 h, time 3 day): 4.5 meq/L
LDH (72 h, time 3 day): 103.8 IU/L
Na (72 h, time 3 day): 141 meq/L
PL (72 h, time 3 day): 155.4 mg/dL
RALB (72 h, time 3 day): 3.6 g/dL
TBIL (72 h, time 3 day): 0.3 mg/dL
TC (72 h, time 3 day): 79.4 mg/dL
TG (72 h, time 3 day): 74.4 mg/dL
TP (72 h, time 3 day): 5.7 g/dL
gamma-GTP (72 h, time 3 day): 1.6 IU/L
TERMINAL_BW ([…], time 7 day): 274.9 g
TERMINAL_BW ([…], time 14 day): 323 g
TERMINAL_BW ([…], time 28 day): 399.3 g
APTT ([…], time 7 day): 17.5 s
Bas ([…], time 7 day): 0%
Eos ([…], time 7 day): 1%
Fbg ([…], time 7 day): 221.6 mg/dL
Hb ([…], time 7 day): 14.2 g/dL
Ht ([…], time 7 day): 41.8%
Lym ([…], time 7 day): 84.6%
MCH ([…], time 7 day): 21.5 pg
MCHC ([…], time 7 day): 34%
MCV ([…], time 7 day): 63.2 fL
Mono ([…], time 7 day): 4.6%
Neu ([…], time 7 day): 10%
PT ([…], time 7 day): 11.9 s
Plat ([…], time 7 day): 117.9 x10_4/uL
RBC ([…], time 7 day): 661.6 x10_4/ul
Ret ([…], time 7 day): 4.7%
WBC ([…], time 7 day): 111.9 x10_2/uL
APTT ([…], time 14 day): 18.1 s
Bas ([…], time 14 day): 0%
Eos ([…], time 14 day): 1%
Fbg ([…], time 14 day): 223.6 mg/dL
Hb ([…], time 14 day): 14.6 g/dL
Ht ([…], time 14 day): 43.4%
Lym ([…], time 14 day): 82.8%
MCH ([…], time 14 day): 20.5 pg
MCHC ([…], time 14 day): 33.6%
MCV ([…], time 14 day): 61.1 fL
Mono ([…], time 14 day): 5.2%
Neu ([…], time 14 day): 11.2%
PT ([…], time 14 day): 11.8 s
Plat ([…], time 14 day): 117.5 x10_4/uL
RBC ([…], time 14 day): 710 x10_4/ul
Ret ([…], time 14 day): 2.5%
WBC ([…], time 14 day): 109.1 x10_2/uL
APTT ([…], time 28 day): 18.9 s
Bas ([…], time 28 day): 0%
Eos ([…], time 28 day): 1.6%
Fbg ([…], time 28 day): 231.2 mg/dL
Hb ([…], time 28 day): 15.2 g/dL
Ht ([…], time 28 day): 45.4%
Lym ([…], time 28 day): 83.2%
MCH ([…], time 28 day): 19 pg
MCHC ([…], time 28 day): 33.6%
MCV ([…], time 28 day): 56.7 fL
Mono ([…], time 28 day): 4.8%
Neu ([…], time 28 day): 11%
PT ([…], time 28 day): 12 s
Plat ([…], time 28 day): 124.3 x10_4/uL
RBC ([…], time 28 day): 799.8 x10_4/ul
Ret ([…], time 28 day): 3%
WBC ([…], time 28 day): 128.8 x10_2/uL
KIDNEY_L ([…], time 7 day): 1.2 g
KIDNEY_R ([…], time 7 day): 1.2 g
KIDNEY_TOTAL ([…], time 7 day): 2.4 g
KIDNEY_L ([…], time 14 day): 1.3 g
KIDNEY_R ([…], time 14 day): 1.3 g
KIDNEY_TOTAL ([…], time 14 day): 2.5 g
KIDNEY_L ([…], time 28 day): 1.4 g
KIDNEY_R ([…], time 28 day): 1.4 g
KIDNEY_TOTAL ([…], time 28 day): 2.9 g
LIVER ([…], time 7 day): 14.7 g
LIVER ([…], time 14 day): 15.7 g
LIVER ([…], time 28 day): 18.7 g
A/G ([…], time 7 day): 1.7
ALP ([…], time 7 day): 918 IU/L
ALT ([…], time 7 day): 32.6 IU/L
AST ([…], time 7 day): 63.4 IU/L
BUN ([…], time 7 day): 18 mg/dL
CRE ([…], time 7 day): 0.6 mg/dL
Ca ([…], time 7 day): 10.8 mg/dL
Cl ([…], time 7 day): 103.4 meq/L
DBIL ([…], time 7 day): 0.018 mg/dL
GLC ([…], time 7 day): 191.8 mg/dL
IP ([…], time 7 day): 7.3 mg/dL
K ([…], time 7 day): 4.6 meq/L
LDH ([…], time 7 day): 101.6 IU/L
Na ([…], time 7 day): 139.6 meq/L
PL ([…], time 7 day): 153.2 mg/dL
RALB ([…], time 7 day): 3.7 g/dL
TBIL ([…], time 7 day): 0.3 mg/dL
TC ([…], time 7 day): 73.6 mg/dL
TG ([…], time 7 day): 110.6 mg/dL
TP ([…], time 7 day): 5.9 g/dL
gamma-GTP ([…], time 7 day): 2 IU/L
A/G ([…], time 14 day): 1.7
ALP ([…], time 14 day): 914 IU/L
ALT ([…], time 14 day): 31.8 IU/L
AST ([…], time 14 day): 63.2 IU/L
BUN ([…], time 14 day): 19.6 mg/dL
CRE ([…], time 14 day): 0.5 mg/dL
Ca ([…], time 14 day): 10.3 mg/dL
Cl ([…], time 14 day): 105.2 meq/L
DBIL ([…], time 14 day): 0.008 mg/dL
GLC ([…], time 14 day): 200.4 mg/dL
IP ([…], time 14 day): 6.7 mg/dL
K ([…], time 14 day): 4.6 meq/L
LDH ([…], time 14 day): 109.6 IU/L
Na ([…], time 14 day): 141.2 meq/L
PL ([…], time 14 day): 152.8 mg/dL
RALB ([…], time 14 day): 3.9 g/dL
TBIL ([…], time 14 day): 0.3 mg/dL
TC ([…], time 14 day): 71.6 mg/dL
TG ([…], time 14 day): 159.4 mg/dL
TP ([…], time 14 day): 6.2 g/dL
gamma-GTP ([…], time 14 day): 1.8 IU/L
A/G ([…], time 28 day): 1.8
ALP ([…], time 28 day): 629.8 IU/L
ALT ([…], time 28 day): 36.4 IU/L
AST ([…], time 28 day): 63.8 IU/L
BUN ([…], time 28 day): 20.2 mg/dL
CRE ([…], time 28 day): 0.7 mg/dL
Ca ([…], time 28 day): 10.9 mg/dL
Cl ([…], time 28 day): 104.2 meq/L
DBIL ([…], time 28 day): 0.01 mg/dL
GLC ([…], time 28 day): 194.4 mg/dL
IP ([…], time 28 day): 6.4 mg/dL
K ([…], time 28 day): 4.4 meq/L
LDH ([…], time 28 day): 121.4 IU/L
Na ([…], time 28 day): 139.6 meq/L
PL ([…], time 28 day): 156.6 mg/dL
RALB ([…], time 28 day): 4 g/dL
TBIL ([…], time 28 day): 0.3 mg/dL
TC ([…], time 28 day): 78.4 mg/dL
TG ([…], time 28 day): 123.8 mg/dL
TP ([…], time 28 day): 6.3 g/dL
gamma-GTP ([…], time 28 day): 1.8 IU/L
